Structures can show the parent of a compound that is named as a salt.

In the first test the target is T1, mGluR5 (Homo sapiens, UniProt P41594).
T1 construct: expressed in transfected cells
T1 sequence (P41594 21-1180 isoform P41594-2 limits assumed): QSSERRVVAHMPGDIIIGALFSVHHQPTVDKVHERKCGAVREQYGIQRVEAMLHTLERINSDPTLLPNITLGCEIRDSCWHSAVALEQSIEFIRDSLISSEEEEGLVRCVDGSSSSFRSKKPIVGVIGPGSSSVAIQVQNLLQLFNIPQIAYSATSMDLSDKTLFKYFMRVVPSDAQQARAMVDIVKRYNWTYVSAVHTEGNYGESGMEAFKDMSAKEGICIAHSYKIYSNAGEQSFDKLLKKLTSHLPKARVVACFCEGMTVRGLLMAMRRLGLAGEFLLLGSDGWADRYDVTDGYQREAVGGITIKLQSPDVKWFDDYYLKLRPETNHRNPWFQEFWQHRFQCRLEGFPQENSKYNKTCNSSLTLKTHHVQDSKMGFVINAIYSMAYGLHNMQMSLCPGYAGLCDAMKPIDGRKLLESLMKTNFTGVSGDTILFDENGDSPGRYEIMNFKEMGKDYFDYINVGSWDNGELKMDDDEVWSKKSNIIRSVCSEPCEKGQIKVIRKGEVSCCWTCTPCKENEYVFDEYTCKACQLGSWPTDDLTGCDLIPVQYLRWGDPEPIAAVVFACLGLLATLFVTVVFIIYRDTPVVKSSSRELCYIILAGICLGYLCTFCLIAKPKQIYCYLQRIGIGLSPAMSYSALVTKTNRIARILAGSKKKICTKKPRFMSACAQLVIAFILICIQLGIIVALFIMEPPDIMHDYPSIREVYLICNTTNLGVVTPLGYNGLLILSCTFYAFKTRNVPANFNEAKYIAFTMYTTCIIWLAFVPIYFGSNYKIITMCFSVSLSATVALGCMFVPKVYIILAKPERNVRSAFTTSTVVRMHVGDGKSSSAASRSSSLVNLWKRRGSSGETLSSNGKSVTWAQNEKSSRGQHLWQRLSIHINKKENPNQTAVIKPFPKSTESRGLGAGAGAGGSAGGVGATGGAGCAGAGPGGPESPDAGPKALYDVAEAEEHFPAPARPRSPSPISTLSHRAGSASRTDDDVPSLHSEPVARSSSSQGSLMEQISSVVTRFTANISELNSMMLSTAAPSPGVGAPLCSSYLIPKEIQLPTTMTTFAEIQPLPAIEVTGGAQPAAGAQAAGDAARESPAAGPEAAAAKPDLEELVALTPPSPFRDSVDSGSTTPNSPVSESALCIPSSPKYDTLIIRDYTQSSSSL
As to the kind of experiment: inhibition of the glutamate induced elevation of intracellular Ca2+-concentration. Type of test: cell-based. Conditions: inhibition of glutamate induced elevation of intracellular Ca2+-concentration at a concentration of 10 μM. From the text:
This can be determined in vitro for example at recombinant human metabotropic glutamate receptors, especially PLC-coupled subtypes thereof such as mGluR5, using different procedures like, for example, measurement of the inhibition of the agonist induced elevation of intracellular Ca^2+ concentration in accordance with L. P. Daggett et al., Neuropharm.
Regarding `C[C@H]1CCCN(C(=O)c2ccc(Nc3ccc(Cl)cc3)nc2)C1` [Compound 1.12a, [6-(4-Chloro-phenylamino)-pyridin-3-yl]-(S-3-methyl-piperidin-1-yl)-methanone], the “mGluR5 Activity inh. at 10 μM [%]” value is on record as 99%.
In the case of `Cc1ccc(Nc2ccc(C(=O)N3CCC[C@H](C)C3)cn2)cn1` [Compound 4.13a, (S-3-Methyl-piperidin-1-yl)-[6-(6-methyl-pyridin-3-ylamino)-pyridin-3-yl]-methanone], the “mGluR5 Activity inh. at 10 μM [%]” value was 97%.
As for `C/C=C\C1CCCCN1C(=O)c1cnc(Nc2ccc(C)nc2)c(Cl)c1` (centres unmarked) [Compound 4.56, [5-Chloro-6-(6-methyl-pyridin-3-ylamino)-pyridin-3-yl]-[((Z)-2-propenyl)-piperidin-1-yl]-methanone], the “mGluR5 Activity inh. at 10 μM [%]” value is reported as 97%.
The same measure, in the same setting: to `CCC(CC)C1OCCCCN1C(=O)c1cnc(Nc2ccc(C)nc2)c(Cl)c1` (centres unmarked) [Compound 4.67] belongs 95%; to `CCC[C@H]1CCCCN1C(=O)c1cnc(Nc2ccc(C)nc2)c(Cl)c1` [Compound 4.35, [5-Chloro-6-(6-methyl-pyridin-3-ylamino)-pyridin-3-yl]-((S)-2-propyl-piperidin-1-yl)-methasone], 85%; to `O=C(c1ccc(Nc2ccc(Cl)cc2)nc1)N1C2CCC1CC(O)C2` (centres unmarked) [Compound 4.11, [6-(4-Chloro-phenylamino)-pyridin-3-yl]-(3-hydroxy-8-aza-bicyclo[3.2.1]oct-8-yl)-methasone], 51%.
The same measure, in the same setting: to `Cc1ccc(Nc2ccc(C(=O)N3CCCC(C)C3)cn2)cc1` (centres unmarked) [Compound 1.13] belongs 96%; to `Cc1ccc(Nc2ncc(C(=O)N3CCCC4CCCC43)cc2Cl)cn1` (centres unmarked) [Compound 4.25, [5-Chloro-6-(6-methyl-pyridin-3-ylamino)-pyridin-3-yl]-(octahydro-[1]pyrindin-1-yl)-methasone], 98%.
The same measure, in the same setting: to `CCOCC1CCCCN1C(=O)c1cnc(Nc2ccc(C)nc2)c(Cl)c1` (centres unmarked) [Compound 4.60, [5-Chloro-6-(6-methyl-pyridin-3-ylamino)-pyridin-3-yl]-(2-thoxymethyl-piperidin-1-yl)-methanone] belongs 97%.

Staying with this test, now noted: read-out: mGluR5 Activity inh. at 10 μM [%].
Consider `Cc1ccc(Nc2ncc(C(=O)N3CCC[C@@H]4CCC[C@@H]43)cc2Cl)cn1` [Compound 4.26, [5-Chloro-6-(6-methyl-pyridin-3-ylamino)-pyridin-3-yl]-(4aS,7aS)-octahydro-[1]pyrindin-1-yl-methanone], for which the inhibition at 10 µM is 93%.
The same measure, in the same setting: to `COc1ccc(Nc2ccc(C(=O)N3C[C@@H](C)O[C@@H](C)C3)cn2)cc1` [Compound 1.21, (cis-2,6-Dimethyl-morpholin-4-yl)-[6-(4-methoxy-phenylamino)-pyridin-3-yl]-methanone hydrochloride] belongs 57%.

The values are drawn from US20120309742A1, “USE OF METABOTROPIC GLUTAMATE RECEPTORS” (priority 2006, published 2012).
